Test results reported in patent publication US8178873B2, “Solution processable organic semiconductors” (3M Innovative Properties Company, priority 2007, dated 2012).

What was measured:
[1] = Solubility measurement in n-butylbenzene; type: physicochemical; details: room temperature, weight percent based on total solution weight
Experimental: The solubility of the small molecule semiconductor was measured in n-butylbenzene at room temperature. The weight percent is based on the total solution weight. Typically, the solubility is lower in n-butylbenzene compared to halogenated solvents such as chloroform, chlorobenzene, and dichlorobenzene.

[2] = Differential Scanning Calorimetry, thermal stability; type: physicochemical; details: DSC, heated from 30 to 360° C. at 10° C. per minute
Experimental: Differential Scanning Calorimetry Measurement
Differential Scanning Calorimeter (DSC, TA Instruments 2920 from TA Instruments of New Castle, Del.) was used to measure phase transition and melting point of the small molecule semiconductors. Examples 1 to 8 were heated from 30 to 350° C. at a heating rate of 10° C. per minute. […] No decomposition was observed up to the 350° C. of the testing range. […] Example 9 was heated from 30 to 360° C. at a heating rate of 10° C. per minute. […] Example 9 started to decompose around 357° C.

SMILES	melting point [°C]	Solubility in butyl benzene [1] [wt %]	Temperature at which decomposition started [2]
CC(C)[Si](C#Cc1c2ccc(-c3cccs3)cc2c(C#C[Si](C(C)C)(C(C)C)C(C)C)c2ccc(-c3cccs3)cc12)(C(C)C)C(C)C [Example 1, 2,6-Bis(thiophene-2-yl)-9,10-bis-[(triisopropylsilyl)ethynyl]anthracene]	293	0.05	–
Cc1ccc(-c2ccc3c(C#C[Si](C(C)C)(C(C)C)C(C)C)c4cc(-c5ccc(C)s5)ccc4c(C#C[Si](C(C)C)(C(C)C)C(C)C)c3c2)s1 [Example 2, 2,6-Bis(5-methyl-thiophene-2-yl)-9,10-bis-[(triisopropylsilyl)ethynyl]anthracene]	333	0.05	–
Cc1ccsc1-c1ccc2c(C#C[Si](C(C)C)(C(C)C)C(C)C)c3cc(-c4sccc4C)ccc3c(C#C[Si](C(C)C)(C(C)C)C(C)C)c2c1 [Example 3, 2,6-Bis(3-methyl-thiophene-2-yl)-9,10-bis-[(triisopropylsilyl)ethynyl]anthracene]	237.6	2.3	–
CCc1ccc(-c2ccc3c(C#C[Si](C(C)C)(C(C)C)C(C)C)c4cc(-c5ccc(CC)s5)ccc4c(C#C[Si](C(C)C)(C(C)C)C(C)C)c3c2)s1 [Example 4, 2,6-Bis(5-ethyl-thiophene-2-yl)-9,10-bis-[(triisopropylsilyl)ethynyl]anthracene]	274.6	1.4	–
CCCc1ccc(-c2ccc3c(C#C[Si](C(C)C)(C(C)C)C(C)C)c4cc(-c5ccc(CCC)s5)ccc4c(C#C[Si](C(C)C)(C(C)C)C(C)C)c3c2)s1 [Example 5, 2,6-Bis(5-propyl-thiophene-2-yl)-9,10-bis-[(triisopropylsilyl)ethynyl]anthracene]	208.3	1.4	–
CCCCCCc1ccc(-c2ccc3c(C#C[Si](C(C)C)(C(C)C)C(C)C)c4cc(-c5ccc(CCCCCC)s5)ccc4c(C#C[Si](C(C)C)(C(C)C)C(C)C)c3c2)s1 [Example 6, 2,6-Bis(5-hexyl-thiophene-2-yl)-9,10-bis-[(triisopropylsilyl)ethynyl]anthracene]	190.3	2.5	–
CCCCCCc1ccsc1-c1ccc2c(C#C[Si](C(C)C)(C(C)C)C(C)C)c3cc(-c4sccc4CCCCCC)ccc3c(C#C[Si](C(C)C)(C(C)C)C(C)C)c2c1 [Example 7, 2,6-Bis(3-hexyl-thiophene-2-yl)-9,10-bis-[(triisopropylsilyl)ethynyl]anthracene]	141.8	4.2	–
CC(C)[Si](C#Cc1c2ccc(-c3ccc(-c4cccs4)s3)cc2c(C#C[Si](C(C)C)(C(C)C)C(C)C)c2ccc(-c3ccc(-c4cccs4)s3)cc12)(C(C)C)C(C)C [Example 8, 2,6-Bis(2,2′-bithiophene-5-yl)-9,10-bis-[(triisopropylsilyl)ethynyl]anthracene]	299	0.2	–
CC(C)[Si](C#Cc1c2ccc(-c3ccc(C=O)s3)cc2c(C#C[Si](C(C)C)(C(C)C)C(C)C)c2ccc(-c3ccc(C=O)s3)cc12)(C(C)C)C(C)C [Example 9, 2,6-Bis(5-formyl-thiophene-2-yl)-9,10-bis-[(triisopropylsilyl)ethynyl]anthracene]	> 350	0.04	around 357 °C
